With `COc1ccc(S(=O)(=O)c2coc(S(N)(=O)=O)c2)cc1`, the melting point – broadly, the temperature, or range, at which the solid turns liquid – amounted to 118 °C.
The figure for `CN(C)CCO` is -59 °C; for `N#CCc1cc(F)cc(F)c1` it is 35 °C.
The figure for `NC(Cn1ccc(=O)c(O)c1)C(=O)O` (stereo not given) is 228 °C; for `O=C(O)CN(CC(=O)O)CC(=O)O` it is 245 °C; for `NNC(=O)C(=O)NC1CCCCC1` it is 238 °C.
The figure for `O=C(O)c1ccc(N2C(=O)C3C(C(=O)c4ccc(Cl)cc4)=NN(c4ccccc4)C3C2=O)cc1` (stereo not given) is 285 °C; for `CNC(=O)C(C)(C(C)C)C(C)C` it is 60 °C.
In the case of `O=S(=O)(Cl)Cc1ccccc1`, the melting point came out at 92 °C.
In the case of `CC1(C)c2ccccc2Oc2ccccc21` it was 41.5 °C.
The figure for `C#CC1=C(C=NNc2ccc([N+](=O)[O-])cc2[N+](=O)[O-])CCCC1` is 190 °C.
For `c1ccc2nnccc2c1`, the melting point turned out to be 38 °C.
In the case of `Cc1ccccc1N/N=C(\C#N)c1nc(-c2ccccc2)cs1` it was 144 °C; in that of `Brc1ccc(Oc2ccccc2Br)cc1`, < 20 °C.
`C=C1OC(=O)OC1(C)C`: the melting point lay in the range of 26 to 30 °C.
In the case of `CCCCS(=O)(=O)NC(Cc1ccc(OCCCCC2CCNCC2)cc1)C(=O)O` (stereo not given) it was 223 °C.
The figure for `NC(c1ccc(F)cc1)C(N)c1ccc(F)cc1` (stereo not given) is 100 to 104 °C; for `CC1=C(C)C(=O)C(C)=C(C)C1=O` it is 112 °C.
`ON=Cc1ccco1` registered a melting point of 78 to 80 °C.
The figure for `CCCCCCCCOC(C)=O` is -38.5 °C.
The figure for `CC(CCc1ccccc1)NCC(O)c1ccc(O)c(C(N)=O)c1` (stereo not given) is 190 °C; for `N#Cc1cnc2ccccc2c1` it is 109 °C; for `Nc1c(C=NNc2ccccc2)ccc2c1C(=O)c1ccccc1C2=O` it is 209 to 211 °C.
In the case of `CN1C(C(=O)Nc2ccccn2)=C(O)c2ccccc2S1(=O)=O` it was 198 °C; in that of `O=C(Cl)c1cccc(-c2ncccn2)c1`, 136 to 137 °C.
In turn, `O=C(O)c1cccc(F)c1C(=O)O` had a melting point of 171 to 175 °C.
The figure for `O=C(c1ccc(Br)cc1)c1noc(-c2ccc(Br)cc2)c1S(=O)(=O)c1ccccc1` is 155 °C.
The figure for `COc1ccc(C(=O)c2ccc(OC)cc2)cc1` is 144 °C.
The figure for `CC(C)CCSCCC(C)C` is -74.6 °C.
The compound `O[Si](O)(c1ccccc1)c1ccccc1` showed a melting point of 202 °C.
The figure for `CCON=C(CC)C1=C(O)CC(c2c(C)cc(C)cc2C)CC1=O` (stereo not given) is 110 °C; for `Cc1cccnc1C(N)=S` it is 120 °C.
The figure for `O=[N+]([O-])c1ccc(S(=O)(=O)O)c([N+](=O)[O-])c1` is 108 °C; for `COc1nccnc1N(C(C)=O)S(=O)(=O)c1ccc(N)cc1` it is 199 °C; for `C=CC(CO)N1C(=O)c2ccccc2C1=O` (stereo not given) it is 62.2 °C.
In the case of `CCCCCC(=O)OC` it was -71 °C; in that of `Cc1ccc(S(=O)(=O)OC2CCC3(C)C(CCC4C5CCC(=O)C5(C)CCC43)C2)cc1` (stereo not given), 164 to 166 °C; in that of `CC(=O)OC[C@H]1O[C@@H](Oc2ccc(C)cc2)[C@H](OC(C)=O)[C@@H](OC(C)=O)[C@@H]1OC(C)=O`, 125 to 126 °C.
On to `CCOC(=O)c1c(NC(=O)Nc2ccccc2)sc2c1CCCC2`, for which the melting point lay within 150 to 152 °C.
In the case of `CCCCCCCOc1ccc(O)cc1` it was 61.5 °C; in that of `CNCc1ccc(-n2ccnc2)cc1`, 67 to 69 °C; in that of `Cc1cccc(N/N=C(/C#N)c2nc(-c3ccc(Cl)cc3)cs2)c1`, 157 °C.
The figure for `Nc1c(F)cc(F)cc1Cl` is 30 °C; for `O=[N+]([O-])c1ccc(-c2nnc(NC3=NCCN3)s2)cc1` it is 239 to 241 °C; for `Cc1n[nH]cc1-c1ccccc1` it is 142 °C.
In turn, `CC(=O)c1cc[nH]c1` showed a melting point of 112 to 114 °C.
In the case of `CC(C)(C)[N+](=O)[O-]` it was 26.2 °C; in that of `N#C/C(=N/Nc1ccccc1[N+](=O)[O-])c1nc(-c2ccccc2)cs1`, 210 °C.
In the case of `CC(=O)Oc1ccc2ccc(OC(C)=O)cc2c1` it was 131 °C; in that of `CCN(CC)CC(O)CO` (stereo not given), -30 °C.
In the case of `Oc1c(Br)c(Br)c(O)c(Br)c1Br` it was 255 to 260 °C.
The compound `CC(C)(C(N)=O)n1nnc2ccccc21` returned a melting point of 187 °C.
In the case of `CC(=O)NCCO` it was 16 °C; in that of `O=C(CBr)c1ccsc1`, 61 to 62 °C.
The figure for `OCc1ccncn1` is 77 °C; for `CCOCC1C(=O)C2(C)CCC1C2(C)C` (stereo not given) it is 114 °C.
In the case of `C(=C\c1nn2c(COc3ccccc3)nnc2s1)/c1ccccc1` it was 141 to 143 °C.
Take `Nc1ccc(Br)c(Cl)c1`: the melting point was determined as 74 °C.
The figure for `O=[N+]([O-])c1ccc(CCO)cc1` is 63 °C.
The compound `O=C(O)c1ccc(CN2CCS(=O)(=O)CC2)cc1` gave a melting point of 222 to 223 °C.
In the case of `Cc1cc(N(C)C)nc(Cl)n1` it was 87 °C; in that of `CC(=O)c1ccc(O)cc1C`, 128 °C.
The figure for `O=C(O)C1CCCN1` (stereo not given) is 228 to 233 °C; for `NS(=O)(=O)c1ccc(Cl)c(S(N)(=O)=O)c1` it is 207 °C; for `CC(=O)c1ccc2c(c1)Cc1ccccc1-2` it is 130 °C.
The figure for `COc1ccc(C=C(C#N)C(N)=O)cc1` is 321 °C.
With `NC(=S)c1cccc(-n2cccc2)c1`, the melting point lay in the range of 110 to 112 °C.
The figure for `O=[N+]([O-])c1ccccc1N1CSc2nnc(-c3cccnc3)n2C1` is 159 °C; for `COc1ccccc1/C=C/C(=O)O` it is 185 °C.
Compound `CC(C)S(=O)(=O)CC#N` gave a melting point of 32 to 34 °C.
The figure for `Cc1cc(N)no1` is 59 to 63 °C; for `O=C(N[C@@H](Cc1ccccc1)C(=O)O)OCC1c2ccccc2-c2ccccc21` it is 183 to 187 °C.
In the case of `CCOc1nc2ccccc2c(=O)[nH]1` it was 178 to 179 °C; in that of `CCCCCC(N)P(=O)(O)O` (stereo not given), 265 to 268 °C; in that of `O=C(Nc1cccnc1Cl)c1ccccc1Cl`, 115 to 117 °C.
The figure for `CC12CCC(O)CC1CCC1C2CCC2(C)C(C3=CC(=O)OC3)CCC12O` (stereo not given) is 253 °C; for `Cc1ccc(-c2csc(/C(C#N)=N\Nc3cc(Cl)ccc3Cl)n2)cc1` it is 187 °C.
On to `O=[N+]([O-])c1c(O)ncnc1O`, for which the melting point amounted to 300 °C.
With `CCCCCCC(=O)OCCC`, the melting point was -63.5 °C.
The figure for `CSc1nc(N)nc(N2CCCCC2)n1` is 156 to 158 °C.
The figure for `O=C(O)c1csnn1` is 233 to 235 °C.
The figure for `FC(F)(F)c1cc(N=C=S)ccc1Cl` is 34 to 36 °C; for `CCOC(=O)c1cc2cc([N+](=O)[O-])ccc2[nH]1` it is 220 to 225 °C; for `Cc1cccc(C)c1NC(N)=S` it is 195 °C.
Compound `CCCC(O)C(O)CO` (stereo not given) displayed a melting point of 66 °C.
For the compound `CC[C@H](N)P(=O)(O)O`, the melting point is 260 °C.
Turning to `O=C(O)CCc1ccc(Br)cc1`, the melting point amounted to 135 °C.
In the case of `COc1ccc([N+](=O)[O-])c(N)c1` it was 131 °C.
The figure for `O=[N+]([O-])c1cccc(S(=O)(=O)NCCNS(=O)(=O)c2cccc([N+](=O)[O-])c2)c1` is 190 °C; for `CC1(C)C2CCC1(C)C(/N=C\c1ccc([N+](=O)[O-])cc1)C2/N=C/c1ccc([N+](=O)[O-])cc1` (stereo not given) it is 170 °C; for `O=C(O)c1c(C(F)(F)F)ccnc1F` it is 92 °C.
In the case of `BrCc1ccc(I)cc1` it was 80 °C; in that of `CC(=CNNc1nc(C)cc(C)n1)c1ccncc1`, 214 to 216 °C.
`CCC(=Cc1ccccc1)[N+](=O)[O-]` showed a melting point of 90.5 °C.
In turn, `COc1cc(Cl)c(OC)cc1N` came in with a melting point of 120 °C.
In the case of `CC(=O)C1(O)CCC2C3CCC4=CC(=O)CCC4(C)C3CCC21C` (stereo not given) it was 222 °C; in that of `c1cc2c(cc1N1N=N1)OCO2`, 129 °C.
The figure for `C=CC(=O)NC(C)C` is 64 °C; for `COC(=O)c1cccc([N+](=O)[O-])c1C(=O)OC` it is 69 °C; for `CN(C)C(=S)Cl` it is 42.5 °C.
Turning to `O=C(OCC(COC(=O)c1ccccc1)OC(=O)c1ccccc1)c1ccccc1`, the melting point was 76 °C.
In the case of `COc1cc(C=O)ccc1F` it was 62 °C.
In the case of `O=[N+]([O-])c1ccc(-n2cc[nH]c2=S)cc1` it was 232 to 233 °C; in that of `Cc1ccc(Cl)cc1NC(N)=S`, 160 to 161 °C; in that of `COc1ccc2c(c1)CC(c1ccc([N+](=O)[O-])cc1)OC2=O` (stereo not given), 176 °C.
In the case of `ClCc1cccc2ccccc12` it was 32 °C.
In the case of `C1CN2CCN3CCN1C23`, the melting point was -14.7 °C.
In the case of `O=C1c2ccc(O)cc2OC(c2ccc(O)c(O)c2)C1O` (stereo not given) it was 227 °C.
In the case of `O=C(Nc1ccccc1)C(Cl)(Cl)Cl` it was 96 °C; in that of `COC(=O)c1c(O)cc(O)cc1O`, 177 °C.
In the case of `CCCCOC(=O)c1ccccc1` it was -22.4 °C.
As to `CC(C)(C(=O)O)C(F)(F)F`, the melting point came to 70 °C.
In the case of `Oc1ccc(Sc2ccc(O)cc2O)c(O)c1` it was 173 to 177 °C.
Compound `CC(C(=O)Nc1ccc(F)c(F)c1F)(C(F)(F)F)C(F)(F)F` came in with a melting point of 44 °C.
In the case of `Cc1cccc(C(O)c2ccccc2)c1` (stereo not given) it was 53 °C.

The values are drawn from a melting point compilation (Tetko et al.).
